Results from patent US20240100023A1, “Compositions and Methods For Treating Spinal Cord Injuries” (priority 2020, published 2024).

Assays:
[1] = test system: BDNF and NGF mRNAs; experiment: BDNF and NGF mRNA prevalence in brain regions (anti-sense cRNA assays); type: in vivo; conditions: for NGF message levels in the dentate gyrus granule cell layers: ampakine-stimulated versus vehicle-treated control; for BDNF and NGF mRNAs in layer II of the piriform cortex: systemic, CX516 30 mg/kg/day, CX691 3 mg/kg/day
From the text: Ampakines enhanced NGF mRNA somewhat more than that of BDNF.

[2] = test system: fragile X syndrome (FXS) patients; conditions: in vivo; cited from earlier work
[3] = test system: hippocampal slices

O=C(c1ccc2nonc2c1)N1CCCCC1 [CX691]
NGF message levels in the dentate gyrus granule cell layers [1]: significantly enhanced | BDNF and NGF mRNAs in layer II of the piriform cortex [1]: significantly up-regulated

O=C(c1ccc2nccnc2c1)N1CCCCC1 [CX516]
Memory, language use, attention, executive and overall functioning in FXS [2]: did not exhibit improved memory | NGF message levels in the dentate gyrus granule cell layers [1]: significantly enhanced | BDNF and NGF mRNAs in layer II of the piriform cortex [1]: significantly up-regulated

O=C1c2cc3c(cc2OC2CCCN12)OCCO3 (stereo not drawn) [CX614, reference compound]
Concentration at which seizure activity is seen in hippocampal slices [3]: 16 µM
